This assay has as its system 5-lipoxygenase. Briefly: 5-lipoxygenase inhibition: oxygen uptake of washed human platelets after arachidonic acid (oxygraph cells). The assay is classed as cell-based. The conditions noted are these: arachidonic acid added to washed human platelets; oxygen uptake versus control cell; read-out: approximate ED50, 5-lipoxygenase inhibition (decrease of oxygen uptake). The method, then:
The compounds of the present invention were also tested for 5-lipoxygenase inhibition. Arachidonic acid is added to washed human platlets and the oxygen uptake is measured using oxygraph cells. A decrease of oxygen uptake versus the control cell indicates inhibition of lipoxygenase. For a fuller description of the procedure see, Wallach, et al., Biochim. Biophys. Acta. 231:445 (1976).

With `COC(=O)c1cc(NCc2cccnc2)ccc1O` [Example 3, 5-(3-Pyridinylmethylamino)salicylic Acid, Methyl Ester], the IC50 was roughly 10 µM.

These data come from patent publication US4486593A, “2-,3-, or 4-Pyridinylmethylamino arylic acids as thromboxane A2 synthetase and 5-lipoxygenase inhibitors” (The Upjohn Company, priority 1983, dated 1984).
